# Reference: patent publication US20130345306A1, “IDENTIFICATION OF C3 COMPLEMENT MOLECULE AT THE SITE OF INJURY TO BLOOD VESSELS IN THE RETINA OF OXYGEN EXPOSED ANIMALS” (priority 2011, published 2013)
# Entries after “also recorded” stand apart in the source; their conditions may differ.
# What was measured:
# human C3aR = human C3aR (Homo sapiens, UniProt Q16581); conditions: cited from earlier work
# rodent C3aR = conditions: cited from earlier work
# [1] = test system: murine oxygen-induced retinopathy (OIR); assay: Murine oxygen-induced retinopathy (OIR), SB290157 injected intraperitoneally on DOL 5, retinal vasculature pattern on DOL 17; assay type: in vivo; conditions: 1 mg/kg i.p. DOL 5
# Experimental: litters of new born mice were divided into 4 groups. On Day of Life (DOL) 5, SB290157 1 mg per kilogram body weight is injected intraperitoneally into mice in Group 1 and Group 3; same volume solvent without SB290157 is injected intraperitoneally into mice in Group 2 and Group 4. Mice from group 1 and 2 are raised in room air all the time, but mice from group 3 and 4 are raised in room air till DOL 7 when they are transfer into 75% oxygen chamber and on DOL 12 they are returned into room air. On DOL 17, eyes are enucleated and retinas dissected after euthanasia. Retinas are then stained with Alexa Fluor 488 conjugated isolectin GS-IB4 and mounted on slide for vasculature pattern study.
# airway neutrophilia = conditions: in vivo; cited from earlier work
# new born mice = assay: Murine OIR trial with progressively increased SB290157 dosage, observation for untoward reactions or side effects; assay type: in vivo, mouse; conditions: i.p. DOL 5; dosage increased from 2.5 to 5, 7.5, 10, 15, 25, 50 mgm/kg; 75% O2 DOL 7-12
# Experimental: Standard O2 exposure 75% DOL 7-12; 3) Euthanasia at DOL17, followed by enucleation, removal of the retina and separation from the retina from underlying Pigment Epithelial layer. Flatmount and stain for vessels with IsoLectin was performed by incubating the preparation with goat AB followed by counter-staining with Rhodamine to bring out the presence of active C3a; 4)Microscopy at 2.5× and 40× for: capillary bed anatomy; presence of “ghost vessels” previously described; presence of cellular debris noted previously thought to be pieces of partially destroyed but not digested cell wall; destruction or absence of neurons and glial in the retina surrounding the Optic Nerve Head(from which major blood vessels exit undamaged at least as can be detected by the oxygen exposure); presence or absence of neovascular tufts (a late complication of oxygen damage). An additional trial with Intravitreal Injection will be performed as this paper is prepared.
# MATERIALS & METHOD: Litters of black 6 new born mice were divided in half at birth. At DOL seven, one half of the litter were placed in an oxygen chamber maintained at 75%+/−2% oxygen till DOL 12. The oxygen exposed mice were maintained in room air until DOL 17. The control mice were raised in room air until DOL 17 when both halves were euthanized at DOL17. Eyes were enucleated and fixed in 4% paraformaldehyde at 4° C. overnight. […]
# [2] = test system: murine oxygen-induced retinopathy (OIR); assay: Murine OIR, SB290157 intraperitoneal just prior to 75% oxygen, preservation of capillary bed; assay type: in vivo, mouse; conditions: 2-5 mg/kg i.p. just prior to 75% oxygen DOL 7-12; vs sham saline injected oxygen-exposed litter mates
# Experimental: Murine Model of Oxygen-Induced Retinopathy (OIR): In this regard we reported the role of active C3a in the OIR (15). C57BL/6J mice were obtained from Jackson Laboratories. After birth the litter of mice were nursed by their dam in a room air environment from day of life (DOL) 0 to DOL 6. On DOL 7 the litter were separated in half. One half were placed with their nursing dam in a custom made incubator from DOL 7 through DOL 12 ([…]) with the oxygen concentration maintained at 75% measured twice daily. The other half of the litter were raised in room air as controls. Dams were replaced every 24 hours in the incubator. […]
# After a rinse, the retinas were permeabilized with 0.1% Triton X100 and stained with Alexa Fluor 488-conjugated isolectin GS-IB4, followed by blocking with 5% donkey serum. […] Images were obtained digitally with a fluorescence microscope and a digital camera. […]
# For a given control half litter the areal extent of total destruction can be estimated, in a non-limiting example from the area extending from optic nerve to mid periphery of the retina. For the SB290157 treated animals the measured area of destruction can be estimated, in a non-limiting example from the area extending from optic nerve to mid periphery of the retina. […] The results of this experiment are measured in prevention of capillary loss. […]
# [3] = 75% oxygen DOL 7-12, DOL 17, vs solvent-injected oxygen-exposed group 4
# human C3aR, sequence (Q16581 whole entry): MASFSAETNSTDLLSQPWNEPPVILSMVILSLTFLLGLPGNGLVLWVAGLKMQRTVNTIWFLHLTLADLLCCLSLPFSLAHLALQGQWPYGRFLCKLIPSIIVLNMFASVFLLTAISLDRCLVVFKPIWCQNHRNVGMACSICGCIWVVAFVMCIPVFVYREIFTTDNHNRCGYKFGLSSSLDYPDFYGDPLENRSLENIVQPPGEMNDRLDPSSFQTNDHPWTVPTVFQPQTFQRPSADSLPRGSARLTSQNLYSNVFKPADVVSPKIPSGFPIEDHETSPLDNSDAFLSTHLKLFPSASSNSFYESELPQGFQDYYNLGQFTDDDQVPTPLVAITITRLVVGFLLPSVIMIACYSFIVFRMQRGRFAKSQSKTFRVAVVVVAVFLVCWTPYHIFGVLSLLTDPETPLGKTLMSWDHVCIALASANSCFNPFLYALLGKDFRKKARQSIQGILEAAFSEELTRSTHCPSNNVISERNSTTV
structure (smiles),measurement,setting,value
NC(N)=NCCC[C@H](NC(=O)COCC(c1ccccc1)c1ccccc1)C(=O)O [SB290157],C3a receptor blockade,human C3aR,blocking
same,C3a receptor blockade,rodent C3aR,blocking
same,effect on murine OIR (conclusion),[1]; 75% oxygen DOL 7-12,can attenuate murine OIR
same,capillary damage in retinal whole mounts,[1]; [3],attenuated the damage to the capillary bed; also recorded: significantly less capillary damage
same,neovascularization tufts,[1]; [3],few to no vascular tufts; also recorded: less neovascularization tufts
same,retinal vasculature / toxicity to forming vascular tissue in room air raised mice,"[1]; room air, DOL 17, vs solvent group 2",No evidence of toxicity to forming vascular tissue; also recorded: normal developing vasculature patterns without significant difference
same,effect in airway neutrophilia,airway neutrophilia,beneficial effects
same,untoward reactions or side effects,new born mice,None were observed
same,preservation of capillary bed,[2],prevents the destruction of capillary bed; also recorded: preservation of capillary bed
